Where two headings read alike, the source gives them in different places.
Legend:
Test in all cases: MTT cancer cell growth inhibition
Format in all cases: cell-based
[1] = test system: SGC-7901 (human gastric cancer cells); conditions: Homo sapiens, SGC-7901, 72 h, MTT, 72 hours incubation, SGC-7901 cells; read-out: GI50 SGC-7901
Method in brief: (§1)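 72 h exposure, final drug 10^−5–10^−10 M, triplicate wells; 1500 cells/well plated the day before; medium DMEM or 1640 + 10% FBS; 37° C./5% CO2. MTT (5 mg/ml stock) 4 h, DMSO solubilisation, A570 → % viability → GI50.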

[2] = test system: PANC-1 (Pac-1, human pancreatic cancer cells); conditions: Homo sapiens, PANC-1, 72 h, MTT
Method in brief: as §1

[3] = test system: Bel-7402 (human hepatoma cells); conditions: Homo sapiens, Bel-7402, 72 h, MTT, 72 hours incubation, Bel-7402 cells; read-out: GI50 Bel-7402
Method in brief: as §1

[4] = test system: DU145 (human prostate cancer cells); conditions: Homo sapiens, DU-145, 72 h, MTT
Method in brief: as §1

[5] = test system: Huh-7 (human hepatoma cells); conditions: Homo sapiens, Huh-7, 72 h, MTT, 72 hours incubation, Huh-7 cells; read-out: GI50 Huh-7
Method in brief: as §1

[6] = test system: HT1080 (human fibrosarcoma cells); conditions: Homo sapiens, HT-1080, 72 h, MTT
Method in brief: as §1

[7] = test system: N-87 (human gastric cancer cells); conditions: Homo sapiens, 72 h, MTT, 72 hours incubation, N-87 cells; read-out: GI50 N-87
Method in brief: as §1

[8] = test system: MDA-MB-231 (breast cancer cells); conditions: Homo sapiens, MDA-MB-231, 72 h, read-out: GI50 MDA-MB-231, MTT, 72 hours incubation, MDA-MB-231 cells
Method in brief: as §1

[9] = test system: HCC827 (human non-small cell lung cancer cells); conditions: Homo sapiens, HCC827, 72 h, MTT, 72 hours incubation, HCC827 cells; read-out: GI50 HCC827
Method in brief: as §1

[10] = test system: lncap (prostate cancer cells); conditions: Homo sapiens, LNCaP, 72 h, MTT
Method in brief: as §1

[11] = test system: U937 (human leukemia cells); conditions: Homo sapiens, U-937, 72 h, MTT
Method in brief: as §1

[12] = test system: BGC-823 (human gastric cancer cells); conditions: Homo sapiens, BGC-823, 72 h, MTT
Method in brief: as §1

[13] = test system: Hela (human cervical cancer cells); conditions: Homo sapiens, HeLa, 72 h, MTT
Method in brief: as §1

[14] = test system: KBM-5 (human chronic myelogenous leukemia); conditions: Homo sapiens, KBM5, 72 h, MTT, 72 hours incubation, KBM-5 cells; read-out: GI50 KBM-5
Method in brief: as §1

[15] = test system: K562 (human leukemia cells); conditions: Homo sapiens, K562, 72 h, MTT, 72 hours incubation, K562 cells; read-out: GI50 K562
Method in brief: as §1

[16] = 72 hours incubation, read-out: GI50 PAN
[17] = 72 hours, present invention, read-out: GI50 PANC-1, a
[18] = 72 hours incubation, read-out: GI50 Du1
[19] = 72 hours, present invention, read-out: GI50 Du145, a
[20] = 72 hours incubation, read-out: GI50 HT1
[21] = 72 hours, present invention, read-out: GI50 HT1080, a
[22] = 72 hours incubation, read-out: GI50 lnca
[23] = 72 hours, present invention, read-out: GI50 lncap, a
[24] = 72 hours incubation, read-out: GI50 U93
[25] = 72 hours, present invention, read-out: GI50 U937, a
[26] = 72 hours incubation, read-out: GI50 BG
[27] = 72 hours, present invention, read-out: GI50 BGC823, a
[28] = 72 hours incubation, read-out: GI50 Hela
[29] = 72 hours, present invention, read-out: GI50 Hela, a
[30] = PANC-1 cells, 72 hours incubation, read-out: GI50 PAN
[31] = DU145 cells, 72 hours incubation, read-out: GI50 Du1
[32] = HT1080 cells, 72 hours incubation, read-out: GI50 HT1
[33] = lncap cells, 72 hours incubation, read-out: GI50 lnca
[34] = U937 cells, 72 hours incubation, read-out: GI50 U93
[35] = BGC-823 cells, 72 hours incubation, read-out: GI50 BG
[36] = Hela cells, 72 hours incubation, read-out: GI50 Hela

SMILES	GI50 [1]	GI50 [2, 16]	GI50 [2, 17]	GI50 [3]	GI50 [4, 18]	GI50 [4, 19]	GI50 [5]	GI50 [6, 20]	GI50 [6, 21]	GI50 [7]	GI50 [8]	GI50 [9]	GI50 [10, 22]	GI50 [10, 23]	GI50 [11, 24]	GI50 [11, 25]	GI50 [12, 26]	GI50 [13, 28]	GI50 [14]	GI50 [15]	other results
C/C=C1\NC(=O)c2nc(ccc2F)CNC(=O)C[C@@H](/C=C/CCSC(C)=O)OC(=O)[C@H](CCCCN)NC1=O [Compound 72]	26 nM	60 nM		61 nM	30 nM		37 nM	60 nM		61 nM	37 nM	61 nM	30 nM		30 nM		60 nM	40 nM	49 nM	33 nM	
C/C=C1\NC(=O)c2cccc(n2)CNC(=O)C[C@@H](/C=C/CCSC(C)=O)OC(=O)[C@H](Cc2cccc3ccccc23)NC1=O [Compound 17]	53 nM	23300 nM		92 nM	5220 nM		61 nM	970 nM		43 nM	79 nM	43 nM	530 nM		20100 nM		19700 nM	11000 nM	81 nM	32 nM	
C/C=C1\NC(=O)c2cc(F)cc(n2)CNC(=O)C[C@@H](/C=C/CCSC(=O)CCCC)OC(=O)[C@H](C(C)C)NC1=O [Compound 40]	45 nM	70 nM		74 nM	40 nM		35 nM	70 nM		71 nM	35 nM	74 nM	30 nM		40 nM		70 nM	70 nM	79 nM	41 nM	

Further lines, with some results ahead:

GI50 [1]	GI50 [2, 16]	GI50 [2, 17]	GI50 [3]	GI50 [4, 18]	GI50 [4, 19]	GI50 [5]	GI50 [6, 20]	GI50 [6, 21]	GI50 [7]	GI50 [8]	GI50 [9]	GI50 [10, 22]	GI50 [10, 23]	GI50 [11, 24]	GI50 [11, 25]	GI50 [12, 26]	GI50 [13, 28]	GI50 [14]	GI50 [15]	SMILES	other results
43 nM	530 nM	530 nM	84 nM	10 nM	12 nM	92 nM	300 nM	300 nM	36 nM	85 nM	18 nM	200 nM	200 nM	30 nM	3 nM	200 nM	220 nM	94 nM	36 nM	C/C=C1\NC(=O)c2cccc(n2)CNC(=O)C[C@@H](/C=C/CCSC(=O)CCCCCCC)OC(=O)[C@H](Cc2ccccc2)NC1=O [Compound 14]	GI50 [12, 27]: 200 nM; GI50 [13, 29]: 220 nM
48 nM		210 nM	75 nM		91 nM	67 nM		197 nM	26 nM	17 nM	26 nM		530 nM		77 nM			33 nM	73 nM	C/C=C1\NC(=O)c2cccc(n2)CNC(=O)C[C@@H](/C=C/CCSC(=O)CCCCCCC)OC(=O)[C@@H](C)NC1=O [Compound 236]	GI50 [2, 30]: 210 nM; GI50 [4, 31]: 90 nM; GI50 [6, 32]: 190 nM; GI50 [10, 33]: 50 nM; GI50 [11, 34]: 70 nM; GI50 [12, 35]: 90 nM; GI50 [12, 27]: 93 nM; GI50 [13, 36]: 810 nM; GI50 [13, 29]: 810 nM
18 nM	60 nM		18 nM	60 nM		58 nM	100 nM		31 nM	41 nM	78 nM	40 nM		70 nM		60 nM	40 nM	8 nM	32 nM	C/C=C1\NC(=O)c2cccc(n2)CNC(=O)C[C@@H](/C=C/CCS)OC(=O)[C@@H](C)NC1=O [Compound 145]	
42 nM		230 nM	91 nM		3 nM	38 nM		24 nM	63 nM	45 nM	85 nM		40 nM		6 nM			27 nM	42 nM	C/C=C1\NC(=O)c2cccc(n2)CNC(=O)C[C@@H](/C=C/CCSC(=O)CCCCCCC)OC(=O)CNC1=O [Compound 235]	GI50 [2, 30]: 230 nM; GI50 [4, 31]: 30 nM; GI50 [6, 32]: 20 nM; GI50 [10, 33]: 40 nM; GI50 [11, 34]: 60 nM; GI50 [12, 35]: 40 nM; GI50 [12, 27]: 43 nM; GI50 [13, 36]: 40 nM; GI50 [13, 29]: 47 nM
